Data taken from PubChem BioAssay AID1259407 (Chemical Carcinogenesis Research Information System (CCRIS), 2018).
The source made the active and inactive calls. How the calls were made is not given here.

Test system: CCRIS mutagenicity, Ames/micronucleus/aberration tests
Test: CCRIS mutagenicity studies
[1] = Test System: AMES SALMONELLA TYPHIMURIUM, Strain/Indicator: TA98, Metabolic Activation: HAMSTER, LIVER, S-9, AROCLOR 1254 (10%), Method: PREINCUBATION
[2] = Test System: AMES SALMONELLA TYPHIMURIUM, Strain/Indicator: TA98, Metabolic Activation: NONE, Method: PREINCUBATION
[3] = Test System: AMES SALMONELLA TYPHIMURIUM, Strain/Indicator: TA98, Metabolic Activation: RAT, LIVER, S-9, AROCLOR 1254 (10%), Method: PREINCUBATION
[4] = Test System: AMES SALMONELLA TYPHIMURIUM, Strain/Indicator: TA98, Metabolic Activation: RAT, LIVER, S-9, AROCLOR 1254, Method: STANDARD PLATE
[5] = Test System: AMES SALMONELLA TYPHIMURIUM, Strain/Indicator: TA100, Metabolic Activation: HAMSTER, LIVER, S-9, AROCLOR 1254 (10%), Method: PREINCUBATION
[6] = Test System: AMES SALMONELLA TYPHIMURIUM, Strain/Indicator: TA100, Metabolic Activation: NONE, Method: PREINCUBATION
[7] = Test System: AMES SALMONELLA TYPHIMURIUM, Strain/Indicator: TA100, Metabolic Activation: RAT, LIVER, S-9, AROCLOR 1254 (10%), Method: PREINCUBATION
[8] = Test System: AMES SALMONELLA TYPHIMURIUM, Strain/Indicator: TA100, Metabolic Activation: RAT, LIVER, S-9, AROCLOR 1254, Method: STANDARD PLATE
[9] = Test System: AMES SALMONELLA TYPHIMURIUM, Strain/Indicator: TA1535, Metabolic Activation: HAMSTER, LIVER, S-9, AROCLOR 1254 (10%), Method: PREINCUBATION
[10] = Test System: AMES SALMONELLA TYPHIMURIUM, Strain/Indicator: TA1535, Metabolic Activation: NONE, Method: PREINCUBATION
[11] = Test System: AMES SALMONELLA TYPHIMURIUM, Strain/Indicator: TA1535, Metabolic Activation: RAT, LIVER, S-9, AROCLOR 1254 (10%), Method: PREINCUBATION
[12] = Test System: AMES SALMONELLA TYPHIMURIUM, Strain/Indicator: TA1537, Metabolic Activation: HAMSTER, LIVER, S-9, AROCLOR 1254 (10%), Method: PREINCUBATION
[13] = Test System: AMES SALMONELLA TYPHIMURIUM, Strain/Indicator: TA1537, Metabolic Activation: NONE, Method: PREINCUBATION
[14] = Test System: AMES SALMONELLA TYPHIMURIUM, Strain/Indicator: TA1537, Metabolic Activation: RAT, LIVER, S-9, AROCLOR 1254 (10%), Method: PREINCUBATION
[15] = Test System: AMES SALMONELLA TYPHIMURIUM, Strain/Indicator: TA1538, Metabolic Activation: NONE, Method: STANDARD PLATE
[16] = Test System: AMES SALMONELLA TYPHIMURIUM, Strain/Indicator: TA1538, Metabolic Activation: RAT, LIVER, S-9, AROCLOR 1254, Method: STANDARD PLATE

Compound | mutagenic call [1] | mutagenic call [2] | mutagenic call [3] | mutagenic call [4] | mutagenic call [5] | mutagenic call [6] | mutagenic call [7] | mutagenic call [8] | mutagenic call [9] | mutagenic call [10] | mutagenic call [11] | mutagenic call [12] | mutagenic call [13] | mutagenic call [14] | mutagenic call [15] | mutagenic call [16] | also measured
Clc1nc2ccccc2nc1Cl | inactive; negative | inactive; negative | inactive; negative | inactive; negative | inactive; negative | inactive; negative | inactive; negative | inactive; negative | inactive; negative | inactive; negative | inactive; negative | inactive; negative | inactive; negative | inactive; negative | inactive; negative | inactive; negative | mutagenic call (Test System: AMES SALMONELLA TYPHIMURIUM, Strain/Indicator: TA98, Metabolic Activation: HAMSTER, LIVER, S-9, AROCLOR 1254, Method: STANDARD PLATE): inactive; negative; mutagenic call (Test System: AMES SALMONELLA TYPHIMURIUM, Strain/Indicator: TA98, Metabolic Activation: NONE, Method: STANDARD PLATE): inactive; negative; mutagenic call (Test System: AMES SALMONELLA TYPHIMURIUM, Strain/Indicator: TA100, Metabolic Activation: HAMSTER, LIVER, S-9, AROCLOR 1254, Method: STANDARD PLATE): inactive; negative; mutagenic call (Test System: AMES SALMONELLA TYPHIMURIUM, Strain/Indicator: TA100, Metabolic Activation: NONE, Method: STANDARD PLATE): inactive; negative; mutagenic call (Test System: AMES SALMONELLA TYPHIMURIUM, Strain/Indicator: TA1535, Metabolic Activation: HAMSTER, LIVER, S-9, AROCLOR 1254, Method: STANDARD PLATE): inactive; negative; mutagenic call (Test System: AMES SALMONELLA TYPHIMURIUM, Strain/Indicator: TA1535, Metabolic Activation: NONE, Method: STANDARD PLATE): inactive; negative; mutagenic call (Test System: AMES SALMONELLA TYPHIMURIUM, Strain/Indicator: TA1535, Metabolic Activation: RAT, LIVER, S-9, AROCLOR 1254, Method: STANDARD PLATE): inactive; negative; mutagenic call (Test System: AMES SALMONELLA TYPHIMURIUM, Strain/Indicator: TA1537, Metabolic Activation: HAMSTER, LIVER, S-9, AROCLOR 1254, Method: STANDARD PLATE): inactive; negative; mutagenic call (Test System: AMES SALMONELLA TYPHIMURIUM, Strain/Indicator: TA1537, Metabolic Activation: NONE, Method: STANDARD PLATE): inactive; negative; mutagenic call (Test System: AMES SALMONELLA TYPHIMURIUM, Strain/Indicator: TA1537, Metabolic Activation: RAT, LIVER, S-9, AROCLOR 1254, Method: STANDARD PLATE): inactive; negative; mutagenic call (Test System: AMES SALMONELLA TYPHIMURIUM, Strain/Indicator: TA1538, Metabolic Activation: HAMSTER, LIVER, S-9, AROCLOR 1254, Method: STANDARD PLATE): inactive; negative; mutagenic call (Test System: MOUSE LYMPHOMA, Strain/Indicator: L5178Y (TK+/TK-), Metabolic Activation: NONE, Method: SUSPENSION/PLATE): active; positive. reevaluation of results: equivocal; mutagenic call (Test System: MOUSE LYMPHOMA, Strain/Indicator: L5178Y (TK+/TK-), Metabolic Activation: RAT, LIVER, S-9, AROCLOR 1254, Method: SUSPENSION/PLATE): active; positive. reevaluation of results: positive
O=C(O)[C@H]1OC(Oc2ccc3cc4ccc5cccc6ccc(c3c2)c4c56)[C@H](O)[C@@H](O)[C@@H]1O (stereo not given in full) | – | inactive; negative | – | – | – | – | – | – | – | – | – | – | – | – | – | – | mutagenic call (Test System: AMES SALMONELLA TYPHIMURIUM, Strain/Indicator: TA98, Metabolic Activation: RAT, LUNG, S-9, Method: PREINCUBATION): inactive; negative
CC(C)CCC(C)Nc1ccc(NC(C)CCC(C)C)cc1 (stereo not given) | inactive; negative | inactive; negative | inactive; negative | – | inactive; negative | inactive; negative | inactive; negative | – | inactive; negative | inactive; negative | inactive; negative | inactive; negative | inactive; negative | inactive; negative | – | – | –
CC1=CC(=C(C#N)C#N)C=C(C=Cc2ccc(N(C)C)cc2)O1 | – | – | – | active; positive | – | – | – | active; positive | – | – | – | – | – | – | inactive; negative | active; positive | mutagenic call (Test System: AMES SALMONELLA TYPHIMURIUM, Strain/Indicator: TA96, Metabolic Activation: RAT, LIVER, S-9, AROCLOR 1254, Method: STANDARD PLATE): active; positive; mutagenic call (Test System: AMES SALMONELLA TYPHIMURIUM, Strain/Indicator: TA97, Metabolic Activation: RAT, LIVER, S-9, AROCLOR 1254, Method: STANDARD PLATE): active; positive; mutagenic call (Test System: AMES SALMONELLA TYPHIMURIUM, Strain/Indicator: TA102, Metabolic Activation: RAT, LIVER, S-9, AROCLOR 1254, Method: STANDARD PLATE): active; positive; mutagenic call (Test System: AMES SALMONELLA TYPHIMURIUM, Strain/Indicator: TA104, Metabolic Activation: RAT, LIVER, S-9, AROCLOR 1254, Method: STANDARD PLATE): active; positive; mutagenic call (Test System: AMES SALMONELLA TYPHIMURIUM, Strain/Indicator: TA1538, Metabolic Activation: RAT, LIVER, MICROSOMES, 3-METHYLCHOLANTHRENE, Method: STANDARD PLATE): active; positive; mutagenic call (Test System: AMES SALMONELLA TYPHIMURIUM, Strain/Indicator: TA1538, Metabolic Activation: RAT, LIVER, MICROSOMES, AROCLOR 1254, Method: STANDARD PLATE): active; positive; mutagenic call (Test System: AMES SALMONELLA TYPHIMURIUM, Strain/Indicator: TA1538, Metabolic Activation: RAT, LIVER, MICROSOMES, PHENOBARBITAL, Method: STANDARD PLATE): active; positive; mutagenic call (Test System: AMES SALMONELLA TYPHIMURIUM, Strain/Indicator: TA1538, Metabolic Activation: RAT, LIVER, MICROSOMES, Method: STANDARD PLATE): active; positive
N=C(N)S(=O)O | – | inactive; negative | – | – | – | inactive; negative | – | – | – | active; positive | – | – | inactive; negative | – | – | – | mutagenic call (Test System: AMES SALMONELLA TYPHIMURIUM, Strain/Indicator: TA98, Metabolic Activation: RAT LIVER S-9, PHENOBARBITAL AND BETA-NAPHTHOFLAVONE, Method: PREINCUBATION): inactive; negative; mutagenic call (Test System: AMES SALMONELLA TYPHIMURIUM, Strain/Indicator: TA100, Metabolic Activation: RAT LIVER S-9, PHENOBARBITAL AND BETA-NAPHTHOFLAVONE, Method: PREINCUBATION): inactive; negative; mutagenic call (Test System: AMES SALMONELLA TYPHIMURIUM, Strain/Indicator: TA1535, Metabolic Activation: RAT LIVER S-9, PHENOBARBITAL AND BETA-NAPHTHOFLAVONE, Method: PREINCUBATION): active; positive; mutagenic call (Test System: AMES SALMONELLA TYPHIMURIUM, Strain/Indicator: TA1537, Metabolic Activation: RAT LIVER S-9, PHENOBARBITAL AND BETA-NAPHTHOFLAVONE, Method: PREINCUBATION): inactive; negative; mutagenic call (Test System: E.COLI, Strain/Indicator: WP2UVRA\PKM101, Metabolic Activation: NONE, Method: PREINCUBATION): inactive; negative; mutagenic call (Test System: E.COLI, Strain/Indicator: WP2UVRA\PKM101, Metabolic Activation: RAT LIVER S-9, PHENOBARBITAL AND BETA-NAPHTHOFLAVONE, Method: PREINCUBATION): inactive; negative
